In patent US4877881A, “Process of preparing pyrazoles, isoxazoles and analogs thereof having activity as 5-lipoxygenase inhibitors” (Warner-Lambert Company, priority 1988, dated 1989):

How the values were obtained:
cyclooxygenase = target: T1, cyclooxygenase (Bos taurus, UniProt O62664); assay: Cyclooxygenase Enzyme Assay, bovine seminal vesicle (BSV), PGE2 formation; assay type: biochemical; conditions: bovine seminal vesicle powder; 100 μM arachidonic acid, 20 minutes
T1 construct: The assay consists of incubating 2 mg bovine seminal vesicle powder; from tissue; host or cells: bovine seminal vesicle powder
T1 sequence (O62664 25-600): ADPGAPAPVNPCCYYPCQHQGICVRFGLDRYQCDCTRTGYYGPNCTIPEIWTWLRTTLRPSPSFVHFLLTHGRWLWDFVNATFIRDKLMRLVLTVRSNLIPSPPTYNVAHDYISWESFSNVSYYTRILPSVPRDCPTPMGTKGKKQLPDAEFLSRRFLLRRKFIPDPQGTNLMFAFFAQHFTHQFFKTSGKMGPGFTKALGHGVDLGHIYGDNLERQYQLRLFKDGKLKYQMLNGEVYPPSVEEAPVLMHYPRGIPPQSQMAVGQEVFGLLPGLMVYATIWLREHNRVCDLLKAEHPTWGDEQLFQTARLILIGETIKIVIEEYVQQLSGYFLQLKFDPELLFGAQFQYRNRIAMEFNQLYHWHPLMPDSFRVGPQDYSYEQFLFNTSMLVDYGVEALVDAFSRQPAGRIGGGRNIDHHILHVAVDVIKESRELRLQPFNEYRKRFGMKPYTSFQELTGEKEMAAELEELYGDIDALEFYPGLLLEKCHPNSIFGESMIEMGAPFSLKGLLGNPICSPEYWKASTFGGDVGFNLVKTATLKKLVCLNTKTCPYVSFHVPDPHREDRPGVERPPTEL
Experimental: Cyclooxygenase Enzyme Assay
Additionally, inhibition of cyclooxygenase is considered a measure of relevance to the pathophysiology of the above noted diseases.
The assay consists of incubating 2 mg bovine seminal vesicle powder with 2 mM epinephrine, 2.5 mM reduced glutathione, 100 μM arachidonic acid, and the test agent for 20 minutes. The reaction mixture is acidified and extracted with ethyl acetate (3×1.0 ml) and the pooled extract is evaporated to dryness using a Speed Vac Concentrator or under a stream of nitrogen. The residue was dissolved in ethanol.

5-lipoxygenase = target: T2, 5-lipoxygenase (Homo sapiens, UniProt P09917); assay: 5-Lipoxygenase Assay Using Isolated Human Leukocytes (5LOA2), 5-HETE formation; assay type: cell-based; conditions: inhibition of 5-HETE formation, arachidonic acid 20 μM, A23187 10 μM, read-out: 5-LO(IC50 in μM)
T2 construct: The formation of 5-HETE in human leukocytes is considered a measure of 5-lipoxygenase activity; endogenous in cells; host or cells: leukocytes isolated from fresh human blood
T2 sequence (P09917 1-674): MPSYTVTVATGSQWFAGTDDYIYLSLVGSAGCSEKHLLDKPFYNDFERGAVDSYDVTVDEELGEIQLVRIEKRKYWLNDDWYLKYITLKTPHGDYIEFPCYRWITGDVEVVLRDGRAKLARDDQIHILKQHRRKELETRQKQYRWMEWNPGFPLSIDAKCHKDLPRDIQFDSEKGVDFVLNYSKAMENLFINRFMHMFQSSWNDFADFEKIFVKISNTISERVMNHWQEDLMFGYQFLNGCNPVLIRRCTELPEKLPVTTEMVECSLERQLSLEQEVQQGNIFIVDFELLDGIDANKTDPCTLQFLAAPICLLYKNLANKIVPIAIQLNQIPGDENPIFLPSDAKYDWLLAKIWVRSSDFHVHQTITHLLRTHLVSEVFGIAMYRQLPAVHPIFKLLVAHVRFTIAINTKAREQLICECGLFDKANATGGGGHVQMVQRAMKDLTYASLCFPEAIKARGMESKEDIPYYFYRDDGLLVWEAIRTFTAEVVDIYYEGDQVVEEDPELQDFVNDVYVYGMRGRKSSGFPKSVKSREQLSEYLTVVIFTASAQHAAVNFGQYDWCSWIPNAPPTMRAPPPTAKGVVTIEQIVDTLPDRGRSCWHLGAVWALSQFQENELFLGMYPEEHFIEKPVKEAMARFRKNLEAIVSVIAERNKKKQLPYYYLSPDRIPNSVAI
Experimental: 5-Lipoxygenase Assay Using Isolated Human Leukocytes (5LOA2)
The formation of 5-HETE in human leukocytes is considered a measure of 5-lipoxygenase activity. The protocol is described in the following.
Fresh heparinized or EDTA treated human blood is mixed with 6% dextran-3% dextrose in isotonic saline in the ratio 0.25 ml dextran solution per 1.0 ml blood. After mixing the blood is allowed to sit at room temperature for about 90 minutes while the RBC's settle. During this period, the plasma is removed with a plastic pipette to nalgens tubes.
The pellet, consisting of leukocytes and erythrocytes, is treated with 10 ml 0.87% ammonium chloride at room temperature for four minutes, lysing the red cells. At the end of four minutes the cells are diluted with a 2x volume of phosphate buffered saline, pH 7.4, and centrifuged for ten minutes. The cells are washed three times with the phosphate buffered saline. Any of the pelleted cell matter which is not easily resuspended is discarded during the washings--the material contains platelets (12-lipoxygenase activity).
After washing, the cells are resuspended in phosphate buffered saline containing 1.0 mM 'calcium and 0.5 mM magnesium. After counting, the cells are diluted to 1.5-2.0×10^7 leukocytes per milliliter.
To each polypropylene reaction tube is added 0.48 ml leukocytes in Ca-Mg phosphate buffered saline, pH 7.4; 1-5 μl test compound dissolved in DMSO and buffer; or DMSO for control tubes.
The tubes preincubate at 37° C. for five minutes.
The reaction is started by adding 20 μl of the following, 0.5 μl, 20 mM arachidonic acid--final concentration=20 μM; 1 μl, 5 mM calcium ionophore A23187--final concentration=10 μM; and 18.5 μl buffer.
The reaction proceeds for five minutes, then is stopped by adding 0.5 ml, 0.5 mM ice-cold Tris buffer, pH 8.0. The tubes are chilled on ice for ten minutes and then extracted three times with a total of 3.5 ml ethyl acetate (3.0 ml removed).
The tubes can be stored at this point. For extended storage, the tubes should be filled with nitrogen.
The ethyl acetate is evaporated with a Sorvall Speed-Vac. The residue is dissolved in ethanol. The tubes can also be stored at this point at -20° C. under nitrogen.
A portion of the ethanol solution is injected into the HPLC system for 5-HETE quantitation.
Injections are made automatically with a Waters WISP 710B. The pump is a Spectra Physics SP8700. […] An RP C-18 column is used. The solvent system is isocratic; the solvent is 70% methanol and 30% 0.01M sodium acetate, pH 5.7, pumped at 1.0 ml/min. […] Using a 15 cm Alltech Nucleosil C-18 5 μM column provides for a sample turnaround time of about 16 minutes.

COc1cc(C=Cc2cc(C=Cc3ccc(O)c(OC)c3)[nH]n2)ccc1O [Example 1, 3,5-Bis[β-(4'-hydroxy-3'-methoxyphenyl)ethenyl]pyrazole]
IC50 (cyclooxygenase): 66 µM
IC50 (5-lipoxygenase): 1 µM

COc1cc(C=Cc2cc(C)n[nH]2)ccc1O [Example 5, 3-[β-(4'-Hydroxy-3'-methoxyphenyl)ethenyl]-5-methylpyrazole]
IC50 (cyclooxygenase): 33 µM
IC50 (5-lipoxygenase): 7.1 µM

Cc1cc(C=Cc2ccc(O)c(Cl)c2)n[nH]1 [Example 7, 3-[β-(4'-Hydroxy-3'-chlorophenyl)ethenyl]-5-methylpyrazole]
IC50 (cyclooxygenase): 34 µM
IC50 (5-lipoxygenase): 5.5 µM
